{"source": "patent US20240307397A1", "about": "“PHARMACEUTICAL COMPOSITION COMPRISING PI3K AND DNA-PK DUAL INHIBITOR FOR PREVENTING OR TREATING PERIPHERAL T CELL LYMPHOMA” (BORYUNG CORPORATION, priority 2021, published 2024)", "key": {"[1]": {"test_system": "subjects with advanced hematologic malignancies", "assay": "Phase Ia dose escalation clinical trial: safety, tolerability, DLT and MTD/RP2D", "type": "in vivo", "from_the_text": "The phase Ia part (dose escalation) of this clinical trial is designed to determine safety, tolerability, and maximum tolerated dose (MTD)/starting dose (RP2D) for clinical phase Ib/II of the test drug in subjects with relapsed/refractory B-cell lymphoma, chronic lymphocytic leukemia (CLL)/small lymphocytic leukemia (SLL) and peripheral T-cell lymphoma (PTCL).\nA method for escalating a dose during the treatment period (phase Ia part) is as follows. At least of 1 and up to 6 subjects may be enrolled in cohorts 1 and 2. 3 to 6 subjects may be enrolled into subsequent cohorts.\n(2) Cohort 3 and all subsequent cohorts will follow the standard 3+3 design. […] If 1 of the 3 subjects experiences a DLT, that dose level will be expanded to 6 subjects (3 additional subjects will be enrolled). If 2 subjects at a given dose level experience a DLT, the maximum tolerated dose (MTD) will have been exceeded and further accrual to the cohort will be terminated. The next lower dose level will be expanded to 6 subjects or if 6 subjects have already been enrolled and no more than 1 of the 6 experienced a DLT, then this lower dose level will be considered the MTD (FIG. 3).\nThe dose limiting toxicity (DLT) in this clinical trial may include the followings:\n1) Assessed by adverse events, vital signs, electrocardiogram (ECG), clinical laboratory tests, physical examination, ECOG performance status up to the last Safety Follow-up Visit, and baseline medical conditions.\n2) Tolerability assessment includes review of dose interruptions, reductions, and doses administered up to the last Safety Follow-up Visit.\n3) Determination of the maximum tolerated dose (MTD) and the starting dose (RP2D) for clinical phase Ib/II are based on dose limiting toxicity (DLT) during Cycle 1.\nThe number and proportion of subjects experiencing the dose limiting toxicity (DLT) are summarized based on the dose-limiting toxicity evaluable set. […] Estimation of maximum tolerated dose (MTD)/recommended dose for clinical phase Ib/II (RP2D) are based upon the methods for determination of MTD/RP2D provided herein (see 3. Overall design, 2) How to escalate dose of test drug).\nA treatment emergent adverse event (TEAE) is defined as any AE that occurs after the first administration of the test drug through 30 days after the last administration of the test drug, or any event that is present at baseline but worsens in severity. […] All the adverse events and toxicities are graded according to CTCAE (version 5.0). Analysis may include, but is not limited to, the followings: […]"}, "[2]": {"test_system": "advanced hematologic malignancies (PTCL, DLBCL, MZL, CTCL-MF)", "assay": "Phase Ia clinical trial: tumor response assessment", "type": "in vivo, humans", "procedure": "1) Tumor response is assessed for both phases la and Ib. The anticancer activity of the test drug is assessed by applying various criteria through imaging tests every two cycles of clinical trials and at the end of therapy (EOT) (optional) (see table 14 for disease assessment criteria below), or for liquid tumors, bone marrow aspirates/biopsies and blood assessments are performed. Tumor response parameters that are assessed include the following: (1) Best overall response: complete response (CR), partial response (PR), stable disease (SD, lasting 12 weeks), or disease progression (DP) Details of the disease assessment criteria and the tools used to determine efficacy parameters are as follows (Table 14). The tumor response (lymphoma (B-cell and T-cell), CLL/SLL, Waldenstrom macroglobulinemia) following administration of the test drug in phases Ia and Ib is assessed using the criteria in table 14. Tumor response parameters vary according to the above applied criteria and may include the followings: The best overall response is defined as the best response across all time points (in the order of CR, PR, SD, and DP) post-treatment. The best overall response (CR, PR, SD, or DP) is summarized by number of subjects and percentages. In the case of best response equal to SD, the minimum duration for SD should be met. For the purpose of calculating an SD rate, the rate will be the percentage (%) of subjects who continue to have SD for at least 12 weeks."}, "[3]": {"assay": "Plasma pharmacokinetic analyses in clinical trial subjects (C1D1, C1D15)", "type": "in vivo, humans", "from_the_text": "1) Plasma concentration-time profile of the test drug (days 1 and 15), urine concentration data (day 15), and derived single dose plasma PK and multiple dose plasma and urine PK parameters (if applicable). • Blood samples are collected according to a predetermined schedule to measure a plasma concentration of the test drug (Table 5). In phase Ia clinical trials, entire urine needs to be collected over each dosing interval according to a pre-determined schedule, starting after dose administration (Table 5).\n• Samples for the determination of the test drug in plasma and urine are analyzed using appropriate validated bioanalytical methods. • Pharmacokinetic parameters are derived using noncompartmental methods with Phoenix® WinNonlin® Version 8.0 or higher (Certara, L.P. Princeton, New Jersey, USA) and/or SAS® Version 9.2 or higher (SAS Institute, Inc., Cary, North Carolina, USA). Actual elapsed time from dosing will be used for the final plasma PK parameter calculations. A minimum of 3 quantifiable postdose concentrations will be required for all calculations. • The PK parameters to be determined for plasma concentration of the test drug on day 1 of cycle 1 and day 15 of cycle 1, if calculable, include but not be limited to the following parameters presented table 6.\nPlasma concentrations and PK parameters of the test drug are listed and summarized by dose, cycle, and clinical trial phase using descriptive statistics.\nOn the day 1 of cycle 1 (C1D1), plasma samples for pharmacokinetic analyses in clinical trial subjects were obtained before and after administration of the test drug (0.5, 1, 1.5, 2, 3, 4, 6, 9, 12 and 24 hours). As a result of the collected pharmacokinetic analyses, it was confirmed that a maximum plasma concentration after a single dose of 50 mg QD, 100 mg QD and 200 mg QD of the test drug ranged […], and a systemic exposure (based on AUC0-24) ranged from 2760 to 21850 ng*h per mL."}, "[4]": {"test_system": "regulatory T cells (Tregs)", "assay": "Whole blood flow-cytometry pharmacodynamics, regulatory T cells", "type": "in vivo, humans", "conditions": "as plasma concentration of the test drug increased (FIG. 6A)", "procedure": "(§1) Blood samples for pharmacodynamic analyses of the test drug were collected in phase Ia (dose escalation part). Whole blood samples were evaluated by flow-cytometry after coimmunostaining for CD3^+, CD4^+, CD25^+, CD127low and CD8^+. Through this, we tried to observe the effects of the test drug on regulatory T cells (Tregs) and CD8^+ T cells."}, "CD8+ T cells": {"test_system": "CD8+ T cells", "assay": "Whole blood flow-cytometry pharmacodynamics, CD8+ T cells", "type": "in vivo, humans", "conditions": "as plasma concentration of the test drug increased (FIG. 6B)", "procedure": "as §1"}, "[5]": {"conditions": "of 11 clinical trial subjects, oral QD"}, "[6]": {"conditions": "11 of 12 subjects enrolled in phase Ia assessed"}, "[7]": {"conditions": "multiple dosing (C1D15), 50 mg to 200 mg cohort"}}, "data": [{"molecule": "C[C@H](Nc1ncnc2[nH]ccc(=O)c12)c1c(Cl)c2cccc(Cl)c2c(=O)n1-c1ccccc1", "note": "[test drug, 4-[[(1S)-1-(4,8-dichloro-1-oxo-2-phenyl-3-isoquinolyl)ethyl]amino]-8H-pyrido[2,3-d]pyrimidin-5-one]", "values": [{"measurement": "dose limiting toxicities (DLTs) observed", "setting": "[1]; cohort 4, 325 mg QD", "result": "two"}, {"measurement": "serious adverse events rated as grades 3 (severe) to 5 (death)", "setting": "[1]; cohorts 1 to 3 (50, 100, 200 mg QD)", "result": "no serious adverse events"}, {"measurement": "subjects with TEAEs evaluated to be related to the test drug", "setting": "[1]; cohorts 1 to 3 (50, 100, 200 mg QD), 3 of 5 subjects", "result": 60.0, "unit": "%"}, {"measurement": "subjects with treatment-emergent adverse events (TEAEs)", "setting": "[1]; cohorts 1 to 3 (50, 100, 200 mg QD), 4 out of 5 subjects", "result": 80.0, "unit": "%"}, {"measurement": "administration-related deaths", "setting": "[1]; cohorts 1 to 3, 5 subjects", "result": "no administration-related deaths occurred"}, {"measurement": "subjects with TEAE of grade 1 (mild)", "setting": "[1]; cohorts 1 to 3, 5 subjects", "result": 1, "unit": "subject"}, {"measurement": "subjects with TEAE of grade 2 (moderate)", "setting": "[1]; cohorts 1 to 3, 5 subjects", "result": 2, "unit": "subjects"}, {"measurement": "subjects with TEAE of grade 4 (life-threatening)", "setting": "[1]; cohorts 1 to 3, 5 subjects, thrombocytopenia, not related to the test drug", "result": 1, "unit": "subject"}, {"measurement": "dose limiting toxicity (DLT)", "setting": "[1]; dose range of cohorts 1 to 3 (50, 100, 200 mg QD)", "result": "no dose limiting toxicity"}, {"measurement": "tolerability", "setting": "[1]; dose range up to 200 mg QD", "result": "excellent"}, {"measurement": "dose limiting toxicity (DLT)", "setting": "[1]; expansion cohort 200 mg QD, 6 subjects", "result": "No dose limiting toxicity"}, {"measurement": "subjects showing grade 3 skin reaction", "setting": "[1]; [5]", "result": 2, "unit": "subjects"}, {"measurement": "subjects showing hepatotoxicity", "setting": "[1]; [5]", "result": 3, "unit": "subjects"}, {"measurement": "maximum tolerated dose (MTD)", "setting": "[1]; oral, 28-day cycle, phase Ia", "result": 200, "unit": "mg QD"}, {"measurement": "recommended starting dose (RP2D) for clinical phase Ib/II", "setting": "[1]; recommended by the Safety Monitoring Committee", "result": 200, "unit": "mg QD"}, {"measurement": "outcome of adverse events (skin reaction, hepatotoxicity)", "setting": "[1]; upon discontinuation of the test drug", "result": "manageable and recovered to grade 0 or 1"}, {"measurement": "complete response (CR)", "setting": "[2]; 8 subjects diagnosed with PTCL", "result": 1, "unit": "subject"}, {"measurement": "disease control rate (DCR)", "setting": "[2]; 8 subjects diagnosed with PTCL", "result": 87.5, "unit": "%"}, {"measurement": "disease progression (PD)", "setting": "[2]; 8 subjects diagnosed with PTCL", "result": 1, "unit": "subject"}, {"measurement": "partial responses (PR)", "setting": "[2]; 8 subjects diagnosed with PTCL", "result": 2, "unit": "subject"}, {"measurement": "complete response (CR)", "setting": "[2]; [6]", "result": 1, "unit": "subject"}, {"measurement": "disease progression (PD)", "setting": "[2]; [6]", "result": 2, "unit": "subjects"}, {"measurement": "partial response (PR)", "setting": "[2]; [6]", "result": 2, "unit": "subjects"}, {"measurement": "activity in peripheral T-cell lymphoma (PTCL) subjects", "setting": "[2]; PTCL subjects, phase Ia", "result": "preliminary activity"}, {"measurement": "dose dependence of exposure concentration", "setting": "[3]; C1D1, dose range of 50 mg to 200 mg (FIG. 4)", "result": "increased in a dose-dependent manner"}, {"measurement": "maximum plasma concentration", "setting": "[3]; C1D1, single dose of 50, 100 and 200 mg QD, plasma", "result": "≤ 2443", "unit": "ng/mL"}, {"measurement": "increase in exposure based on AUCtau", "setting": "[3]; [7]", "result": "~4.97", "unit": "fold"}, {"measurement": "increase in exposure based on Cmax", "setting": "[3]; [7]", "result": "~2.92", "unit": "fold"}, {"measurement": "dose dependence of exposure concentration", "setting": "[3]; multiple dosing (C1D15), dose range of 50 mg to 200 mg (FIG. 5)", "result": "increased in a dose-dependent manner"}, {"measurement": "accumulation", "setting": "[3]; multiple dosing, dose range of 50 mg to 200 mg", "result": "no accumulation observed"}, {"measurement": "change of regulatory T cells (Tregs) compared to the baseline value", "setting": "[4]", "result": "decreased"}, {"measurement": "change of CD8+ T cells compared to the baseline value", "setting": "CD8+ T cells", "result": "increased"}]}]}
